Results taken from patent publication US12005128B1, “Near infrared small molecule probes for the detection of cellular senescence” (UNM Rainforest Innovations, priority 2019, dated 2024).

Experiments:
[1] = system: β-gal in LacZ(+) cells (CT26.CL25); experiment: Flow cytometry detection of β-gal in LacZ(+) live cells; format: cell-based, mouse; details: CT26.CL25, 1 hour and 4 hours, probe 10 μM, λex=640 nm
Procedure: FIG. 13 is a graph showing flow cytometry detection of β-gal by the NIR-BG probe in LacZ(+) cells (CT26.CL25) probe (10 μM), λex=640 nm.
(§1) FIG. 15 depicts the quantification of the mean fluorescence intensity in FIGS. 13 and 14.

CT26.WT cells [2] = experiment: Flow cytometry, negative control cells; format: cell-based, mouse; details: same treatment, probe 10 μM, λex=640 nm
Procedure: FIG. 14 is a graph showing flow cytometry detection of negative control CT26.WTcells probe (10 μM), λex=640 nm.
as §1

CT26.CL25 cells [3] = experiment: Confocal fluorescence microscopy of LacZ(+) live cells; format: cell-based, mouse
Procedure: (§6) In order to see whether our NIR-BG probe can be used for β-gal detection in live cells, we chose an engineered cell line that stably express LacZ(+), the gene that encodes β-gal. CT26.CL25, a mouse colon fibroblast carcinoma cell line that express β-gal, was therefore used in our initial live cell experiments. […] Cell samples after incubating with our NIR-BG probe were analyzed using flow cytometry (FIG. 13-15) and confocal microscopy (not shown).

CT26.WT cells [4] = experiment: Confocal fluorescence microscopy, wild type control cells; format: cell-based, mouse; details: after 4-hour incubation
Procedure: as §6

HeLa cells [5] = experiment: Flow cytometry detection of senescence in drug or radiation treated cancer cells; format: cell-based, human
Procedure: FIG. 16 is a graph showing detection of senescence in human cancer cells via flow cytometry of HeLa cells without treatment, or with CPT, CPT/CHX, or radiation treatment. Probe concentration, 10 μM. λex=640 nm; PerCP bandpass filter at 675/25 nm. ***P<0.001.
(§2) With the confidence of our probe being able to detect β-gal in live cells, we moved further to evaluate whether it could differentiate senescent cells and normal cells. Human cervical cancer cells (HeLa) and metastatic breast cancer cells (MCF7), were used in all four groups of cells evaluated. Senescence in HeLa and MCF7 cells were induced using camptothecin (CPT), an inhibitor of DNA topoisomerase I that could cause lethal DNA strand breaks^59. […] Radiation therapy is another effective method for cancer treatment in clinic; it can also induce cell cycle arrest leading to senescence. All four groups of cells, with no drug treatment, with CPT treatment, with both CPT and CHX treatment, or with 10 Gy radiation treatment, were then incubated with our NIR-BG probe, followed by flow cytometry (FIGS. 16-19).

MCF7 cells [6] = experiment: as above; format: cell-based, human
Procedure: FIG. 18 is a graph showing Flow cytometry of MCF7 cells without treatment, or with CPT, CPT/CHX, or radiation treatment. Probe concentration, 10 μM. λex=640 nm; PerCP bandpass filter at 675/25 nm. ***P<0.001.
as §2

HeLa cells [7] = experiment: Confocal microscopy of normal and senescent cells; format: cell-based, human
Source text: (§3) Since SABG is localized in the lysosome, we then performed confocal microscopy of the normal and senescent HeLa or MCF7 cells (Not shown). […] X-gal staining also verified the existence of SABG in cells after chemotherapy and radiation therapy.

MCF7 cells [8] = experiment: Confocal microscopy of normal and senescent cells; format: cell-based, human
Source text: as §3

β-galactosidase = system: β-galactosidase
Source text: FIG. 25A is absorbance and emission spectra of the unactivated NIR-BG probe by β-galactosidase.
FIG. 25B is absorbance and emission spectra of the activated NIR-BG probe by β-galactosidase.

[9] = system: CT26.CL25 and CT26.WT tumors; experiment: Fluorescence imaging of CT26 tumors with and without active β-gal; format: in vivo, mice
Source text: In a preliminary experiment, we used the genetically modified mice colon cancer cell line CT26 to determine whether NIR-BG could differentiate tumors with and without active β-gal (Not shown). […] We also confirmed β-gal expression in resected whole tumor and tumor slides (Not shown).

HeLa tumors [10] = experiment: Fluorescence imaging of chemotherapy-induced senescence in HeLa xenografts (NIR-BG); format: in vivo, mice; details: 675 nm excitation and 720 nm emission
Procedure: We then moved on to HeLa xenografted mice models to see whether probe NIR-BG could visualize chemotherapy-induced senescence in tumors. (FIGS. 26-28) Tumor-bearing mice were first systemically treated with CPT or saline before the probe NIR-BG was injected. […] We were delighted to find that NIR-BG behaved similarly in the drug-treated mice (with drug-induction triggered expression of β-gal) to the CT26 tumor models (with genetically expressed β-gal). […] While not depicted, resected intact whole tumor staining, histochemical staining with X-gal and immunofluorescent staining of tumor tissue with antibodies against β-gal further confirmed the probe activation in senescent tumors.

CT26.CL25 cells [11] = system: CT26.CL25 cells
Procedure: (§7) In order to see whether our NIR-BG probe can be used for β-gal detection in live cells, we chose an engineered cell line that stably express LacZ(+), the gene that encodes β-gal. […] Cell samples after incubating with our NIR-BG probe were analyzed using flow cytometry (FIG. 13-15) and confocal microscopy (not shown).

CT26.WT cells [12] = system: CT26.WT cells
Procedure: as §7

HeLa cells [13] = experiment: Imaging of β-gal in senescent and normal HeLa cells by NIR-BG1 and NIR-BG2; format: cell-based, human; details: for NIR signal in normal cells: normal HeLa cells
CT26.CL25 cells [14] = experiment: Fluorescence microscope imaging of LacZ(+) cells by NIR-BG1 and NIR-BG2; format: cell-based, mouse
Source text: (§4) In order to further verify that our probe can specifically detect β-gal in cells, CT26.CL25 cells were imaged with our probes and compared with the CT26.WT cells.

CT26.WT cells [15] = experiment: Fluorescence microscope imaging of wild type cells by NIR-BG1 and NIR-BG2; format: cell-based, mouse
Source text: as §4

HeLa tumors [16] = experiment: HeLa xenografts imaging of senescence by NIR-BG1 and NIR-BG2; format: in vivo, mice; details: for fluorescence of senescent tumor relative to normal tumor: CPT vs saline, quantification of optical imaging; for fluorescence of senescent tumor relative to normal tumor / fluorescence of CPT treated tumor compared to saline treated tumor: tail vein injection
Procedure: HeLa xenografts imaging was successfully performed to further evaluate the capability of NIR-BG1 and NIR-BG2 to visualize senescence in vivo. HeLa tumor-bearing mice were treated with CPT or saline to induce the senescent cancer cells. […] Ex vivo imaging and quantitative analysis of the tumors and organs further confirmed the in vivo imaging results.

HeLa tumors [17] = experiment: HeLa tumor growth with and without CPT treatment; format: in vivo; details: HeLa xenografted mice, systemic treatment
Source text: (The tumors of control group reached the maximum volume limitation and were imaged and euthanized.)

HeLa cells [18] = experiment: Western blot of cell lysates for β-gal, p16 and p21; format: cell-based, human
Source text: FIG. 20 is a western blot of cell lysates of β-gal, p16, and p21 expression in HeLa cells without drug treatment, with CPT or radiation treatment. ***P<0.001, **P<0.005.
FIG. 21 is a quantification of FIG. 20.
(§5) Cell cycle inhibitors p21 and p16 are often expressed by senescent cells^1. Therefore, we examined the cell lysates of all cell samples from the imaging studies using Western blot (FIGS. 20-24). […] In addition to HeLa cells, MCF7 cells also expressed higher levels of p16 and p21 upon CPT treatment (FIGS. 22, 23). The Western blot results confirmed the senescent state of these drug or radiation treated cells used in the imaging experiments.

MCF7 cells [19] = experiment: as above; format: cell-based, human
Source text: FIG. 22 is a western blot of β-gal, p16, and p21 expression in MCF7 cells without drug treatment, with CPT or radiation treatment. ***P<0.001, **P<0.005.
FIG. 23 is a quantification of FIG. 22.
as §5

β-gal = details: cited from earlier work

## CCC[N+]1=C(/C=C/C2=C3Oc4cc(O[C@@H]5O[C@H](CO)[C@H](O)[C@H](O)[C@H]5O)ccc4C=C3CCC2)C(C)(C)c2ccccc21 [NIR-BG]
[1]
  flow cytometry fluorescence: obvious fluorescence
CT26.WT cells [2]
  flow cytometry fluorescence: only background signal
CT26.CL25 cells [3]; CT26.CL25
  colocalization of NIR signal with β-gal expression: highly colocalized
CT26.CL25 cells [3]; CT26.CL25, 1-hour probe treatment
  confocal fluorescence signal: obvious
CT26.WT cells [4]
  confocal fluorescence in the NIR channel: no fluorescence
HeLa cells [5]; probe 10 μM, λex=640 nm
  flow cytometry fluorescence of CPT or radiation treated cells compared to untreated control cells: significantly higher fluorescence
MCF7 cells [6]; MCF7, probe 10 μM, λex=640 nm
  flow cytometry fluorescence of CPT or radiation treated cells compared to untreated control cells: significantly higher fluorescence
HeLa cells [7]
  colocalization of probe signal with lysosome and β-gal in senescent cells: well colocalized
  confocal fluorescence in CPT or radiation treated cells versus control cells without treatment: strikingly higher
MCF7 cells [8]
  colocalization of probe signal with lysosome and β-gal in senescent cells: well colocalized
  confocal fluorescence in CPT or radiation treated cells versus control cells without treatment: strikingly higher
β-galactosidase; activated probe
  maximal absorption: 680 nm
  maximal emission: 710 nm
β-galactosidase; unactivated probe
  absorption peak: around 640 nm
  emission peak: around 660 nm
[9]; 640 nm excitation and 680 nm emission
  difference in tumor signal, CT26.CL25 versus CT26.WT tumors: minimal
[9]; 1 h after probe injection, 675 nm excitation and 720 nm emission
  tumor signal, LacZ(+) CT26.CL25 versus CT26.WT tumors: significantly higher signals
HeLa tumors [10]
  tumor signal of activated form, CPT treatment versus saline: significantly higher signal
CT26.CL25 cells [11]
  toxicity in cell culture (cell viability): did not appear toxic
CT26.WT cells [12]
  toxicity in cell culture (cell viability): did not appear toxic

## CCC[N+]1=C(/C=C/C2=C3Oc4cc(OCc5ccc(O[C@@H]6O[C@H](CO)[C@H](O)[C@H](O)[C@H]6O)cc5)ccc4C=C3CCC2)C(C)(C)c2ccccc21 [NIR-BG1]
HeLa cells [13]
  NIR signal in normal cells: no significant signal
HeLa cells [13]; senescent HeLa cells
  NIR signal in senescent cells: showed NIR signals
CT26.CL25 cells [14]
  NIR fluorescence: high NIR fluorescence
CT26.WT cells [15]
  signal in the NIR channel: background signal
HeLa tumors [16]
  fluorescence of senescent tumor relative to normal tumor: 2.84 times
  fluorescence of CPT treated tumor compared to saline treated tumor: significantly increased fluorescence

## CC[C@@]1(O)C(=O)OCc2c1cc1n(c2=O)Cc2cc3ccccc3nc2-1 [CPT, camptothecin]
HeLa tumors [17]
  tumor growth compared to saline only: significantly inhibited
HeLa cells [18]
  p16 and p21 expression compared with normal cells: both increased
  β-gal levels compared with the control cells: elevated
MCF7 cells [19]
  p16 and p21 expression upon treatment: higher levels
  β-gal levels compared with the control cells: elevated

## C[C@@H]1C[C@@H]([C@H](O)CC2CC(=O)NC(=O)C2)C(=O)[C@@H](C)C1 [CHX, cycloheximide, reference compound]
HeLa cells [5]
  NIR-BG fluorescence in cells treated with both CPT and CHX compared to the CPT-treated group: significantly reduced
MCF7 cells [6]; MCF7
  NIR-BG fluorescence in cells treated with both CPT and CHX compared to the CPT-treated group: significantly reduced

## CCC[N+]1=C(/C=C/C2=C3Oc4cc(OCc5ccc(O[C@@H]6O[C@H](CO)[C@H](O)[C@H](O)[C@H]6O)cc5)c(C(F)F)cc4C=C3CCC2)C(C)(C)c2ccccc21 [NIR-BG2]
HeLa cells [13]
  NIR signal in normal cells: no significant signal
HeLa cells [13]; senescent HeLa cells
  NIR signal compared with NIR-BG1: significantly higher
  NIR signal in senescent cells: showed NIR signals
CT26.CL25 cells [14]
  NIR fluorescence: high NIR fluorescence
  NIR signal compared with NIR-BG1: significantly higher
CT26.WT cells [15]
  signal in the NIR channel: background signal
HeLa tumors [16]
  signal and accumulation in the tumors compared with NIR-BG1: much higher signal and extended accumulation
  fluorescence of senescent tumor relative to normal tumor: 3.06 times
  fluorescence of CPT treated tumor compared to saline treated tumor: significantly increased fluorescence

## hydroxymethyl rhodol (HMR) β-galactoside
β-gal
  fluorescence turn-on ratio: 1,400 fold
